Laboratory results published in US9682995B2, “Amino-substituted isothiazoles” (BAYER PHARMA AKTIENGESELLSCHAFT, priority 2013, dated 2017).

System: spindle assembly checkpoint
Test: SAC-Formation - Nocodazole-Induced Assay
Format: cell-based
Settings: Homo sapiens; HeLa cells, nocodazole 0.1 μg/ml, 24 h, phosphorylated histone H3 on serine 10
From the text: The spindle assembly checkpoint assures the proper segregation of chromosomes during mitosis. Upon entry into mitosis, chromosomes begin to condensate which is accompanied by the phosphorylation of histone H3 on serine 10. Dephosphorylation of histone H3 on serine 10 begins in anaphase and ends at early telophase. Accordingly, phosphorylation of histone H3 on serine 10 can be utilized as a marker of cells in mitosis. Nocodazole is a microtubule destabilizing substance. Paclitaxel is a microtubule stabilizing compound. Thus, nocodazole as well as paclitaxel interfere with microtubule dynamics and mobilize the spindle assembly checkpoint. […] The mitotic breakthrough can be detected by the decrease of cells with phosphorylation of histone H3 on serine 10. This decline is used as a marker to determine the capability of compounds of the present invention to induce a mitotic breakthrough. The typical morphological alteration of nuclei with a prematurely completed mitosis after SAC-inhibition can be monitored via image analysis routines supporting those findings.
The nocodazole and paclitaxel variations were used to focus on compounds that are capable of inhibiting a SAC induced by both microtubule destabilization as well as microtubule stabilization. When SAC inducing agents and compounds are given simultaneously, inhibitors that effectively block the SAC during formation or abrogation are identified. When cells are incubated with a SAC inducing agent and the SAC interfering compound is given after a defined time, inhibitors are identified that effectively block SAC abrogation.
Cultivated cells of the human cervical tumor cell line HeLa (ATCC CCL-2) were plated at a density of 1000 cells/well in a 1536-well microtiter plate in 2 μl PAA Ham's F12 Medium supplemented with 1% (v/v) glutamine, 1% (v/v) penicillin, 1% (v/v) streptomycin and 10% (v/v) fetal calf serum. After incubation overnight at 37° C., 10 μl/well nocodazole at a final concentration of 0.1 μg/ml were added to cells. Test compounds solubilized in dimethyl sulfoxide (DMSO) were added at various concentrations (0 μM, as well as in the range of 0.005 μM-20 μM; the final concentration of the solvent DMSO was 0.5% (v/v)). Cells were incubated for 24 h at 37° C. in the presence of test compounds in combination with nocodazole. Thereafter, cells were fixed in 4% (v/v) paraformaldehyde in phosphate buffered saline (PBS) at 4° C. overnight then permeabilized in 0.1% (v/v) Triton X™ 100 in PBS at room temperature for 20 min and blocked in 0.5% (v/v) bovine serum albumin (BSA) in PBS at room temperature for 15 min. After washing with PBS, 5 μl/well antibody solution (anti-phospho-histone H3 clone 3H10, FITC; Millipore, Cat #16-222; 1:1000 dilution) was added to cells, which were incubated for 2 h at room temperature. Afterwards, cells were washed with PBS and 5 μl/well solution of HOECHST 33342 dye (5 μg/ml) was added to cells and cells were incubated 15 min at room temperature in the dark. Cells were washed twice with PBS then covered with PBS and stored at 4° C. until analysis. Images were acquired with a PERKIN ELMER OPERA™ High-Content Analysis reader. Images were analyzed with image analysis software MetaXpress™ from Molecular devices utilizing the Mitotic Index application module. In this assay both labels HOECHST 33342 and phosphorylated Histone H3 on serine 10 were measured. HOECHST 33342 labels the DNA and is used to count the cell number. The staining of phosphorylated Histone H3 on serine 10 determines the number of mitotic cells. […] Otherwise cells were arrested at G2/M phase of the cell cycle progression. The raw assay data were further analyzed by four-parametric hill equation using Genedata's Assay Analyzer and Condoseo software.

Molecule `COc1ccc(NC(=O)c2c(C)nsc2Nc2nc3c(C(F)(F)F)ccnc3s2)cn1` [Example 123] has an IC50 of 0.22 µM.

`COc1ccc(NC(=O)c2c(C)nsc2Nc2nc3ncc(C(F)(F)F)cc3s2)cn1` [Example 124] showed an IC50 of 18 µM.

Work on `COc1ccnc(Nc2snc(C)c2C(=O)Nc2ccc(F)c(F)c2)c1` [Example 125] yielded an IC50 greater than 20 µM.

Molecule `COc1ccc(NC(=O)c2c(C)nsc2Nc2ncc(C(=O)O)s2)cn1` [Example 126] has an IC50 of 19 µM.

In the case of `CCc1ccccc1NC(=O)c1c(C)nsc1Nc1nc(C)cc(C)n1` [Example 127], the IC50 is reported as greater than 20 µM.

Molecule `COc1ccc(NC(=O)c2c(C)nsc2Nc2ncc(C(=O)N3CCOCC3)s2)cn1` [Example 128] has an IC50 of 13 µM.

In the case of `COc1ccc(NC(=O)c2c(C)nsc2Nc2nc3cnccc3s2)cn1` [Example 129], the IC50 is reported as 14 µM.

`Cc1nsc(Nc2cc(C(=O)N(C)C)ccn2)c1C(=O)Nc1ccc(F)c(F)c1` [Example 130] gave an IC50 greater than 20 µM.

`Cc1nsc(Nc2nc(C(=O)N(C)C)cs2)c1C(=O)Nc1ccc(F)c(F)c1` [Example 131] gave an IC50 of 11 µM.

In the case of `CNc1cncc(Nc2snc(C)c2C(=O)Nc2ccc(F)c(F)c2)n1` [Example 132], the IC50 is reported as 14 µM.

Work on `Cc1nsc(Nc2cncc(C(=O)N3CCN(C)CC3)n2)c1C(=O)Nc1ccc(F)c(F)c1` [Example 133] yielded an IC50 of 15 µM.

`CCc1ccccc1NC(=O)c1c(C)nsc1Nc1cc(OC)ccn1` [Example 134] gave an IC50 greater than 20 µM.

Molecule `CCc1ccccc1NC(=O)c1c(C)nsc1Nc1ncc(OC)cn1` [Example 135] has an IC50 of 16 µM.

`CCc1cnc(Nc2snc(C)c2C(=O)Nc2ccccc2CC)nc1` [Example 136] was tested, and the IC50 was 6.8 µM.

`CCc1ccccc1NC(=O)c1c(C)nsc1Nc1ncccn1` [Example 137] gave an IC50 greater than 20 µM.

With `CCc1ccccc1NC(=O)c1c(C)nsc1Nc1nccc2ccccc12` [Example 138] the IC50 was 17 µM.

Work on `CCOC(=O)c1cc(C)nc(Nc2snc(C)c2C(=O)Nc2ccccc2CC)c1` [Example 139] yielded an IC50 greater than 20 µM.

In the case of `COC(=O)c1ccnc(Nc2snc(C)c2C(=O)Nc2ccc(OC)nc2)c1` [Example 140], the IC50 is reported as greater than 20 µM.

`CCc1ccccc1NC(=O)c1c(C)nsc1Nc1ncccc1C` [Example 141] was tested, and the IC50 was 19 µM.

For `CCc1ccccc1NC(=O)c1c(C)nsc1Nc1ccccn1` [Example 142], the IC50 was 14 µM.

For `CCOc1ccc(NC(=O)c2c(C)nsc2Nc2cc(C#N)ccn2)cn1` [Example 143], the IC50 was greater than 20 µM.

For `CCc1ccccc1NC(=O)c1c(C)nsc1Nc1ncccc1OC` [Example 144], the IC50 was greater than 20 µM.

Work on `CCc1ccccc1NC(=O)c1c(C)nsc1Nc1ccc(C(=O)OC)cn1` [Example 145] yielded an IC50 of 7.2 µM.

`CCc1ccccc1NC(=O)c1c(C)nsc1Nc1cnc(C(=O)OC)cn1` [Example 146] showed an IC50 of 1.4 µM.

`COC(=O)c1cnc(Nc2snc(C)c2C(=O)Nc2ccc(OC)nc2)o1` [Example 147] showed an IC50 of 13 µM.

`CCc1ccccc1NC(=O)c1c(C)nsc1Nc1cccc(OC)n1` [Example 148] was tested, and the IC50 was greater than 20 µM.

`CCc1ccccc1NC(=O)c1c(C)nsc1Nc1cc(C(=O)OC)ccn1` [Example 149] was tested, and the IC50 was 4.1 µM.

`CCOC(=O)c1cnc(Nc2snc(C)c2C(=O)Nc2ccc(OC)nc2)o1` [Example 150] gave an IC50 of 16 µM.

`Cc1nsc(Nc2ccc(C(N)=O)cn2)c1C(=O)Nc1ccc(Cl)c(F)c1` [Example 151] was tested, and the IC50 was 1.7 µM.

`COc1ccc(NC(=O)c2c(C)nsc2Nc2ncc(C(N)=O)s2)cn1` [Example 152] gave an IC50 greater than 20 µM.

`Cc1nsc(Nc2ccc(C(=O)N(C)C)nn2)c1C(=O)Nc1ccc(F)c(F)c1` [Example 153] showed an IC50 of 1.5 µM.

`CCNC(=O)c1cnc(Nc2snc(C)c2C(=O)Nc2ccc(OC)nc2)s1` [Example 154] gave an IC50 of 4.3 µM.

Molecule `COc1ccc(NC(=O)c2c(C)nsc2Nc2ncc(C(=O)N(C)C)s2)cn1` [Example 155] has an IC50 of 5.8 µM.

`COc1ccc(NC(=O)c2c(C)nsc2Nc2nc(-c3ccc(Cl)cc3)cs2)cn1` [Example 156] was tested, and the IC50 was 0.55 µM.

`COc1ccc(Oc2ccc(NC(=O)c3c(C)nsc3Nc3ccc(C#N)cn3)cn2)cc1` [Example 157] gave an IC50 of 2.8 µM.

`COc1ccc(NC(=O)c2c(C)nsc2Nc2ncc(C#N)s2)cn1` [Example 158] showed an IC50 of 4.2 µM.

Molecule `CCc1ccccc1NC(=O)c1c(C)nsc1Nc1ncnc(C)c1C` [Example 159] has an IC50 of 15 µM.

With `COc1ccc(NC(=O)c2c(C)nsc2Nc2nc(C(N)=O)cs2)cn1` [Example 160] the IC50 was 2.6 µM.

In the case of `CCc1ccccc1NC(=O)c1c(C)nsc1Nc1cnc(C(N)=O)cn1` [Example 161], the IC50 is reported as 15 µM.

`COc1ccc(NC(=O)c2c(C)nsc2Nc2ccc(C#N)cn2)cc1F` [Example 162] gave an IC50 greater than 20 µM.

For `Cc1nsc(Nc2cnccn2)c1C(=O)Nc1ccc(OC2CCCCC2)nc1` [Example 163], the IC50 was 1.3 µM.
